Data from patent publication US7776868B2, “Substituted bicyclic and tricyclic thieno[2,3-d]pyrimidines as A2A adenosine receptor antagonists” (Gilead Palo Alto, Inc., priority 2006, dated 2010).

Molecular target: A2A adenosine receptor (UniProt P29274)
Test: A2A radioligand competitive binding assay (3H-MSX-2 displacement)
Parameters: species or system human
Settings: competitive binding vs 2 nM 3H-MSX-2, 15 ug A2A membrane, 23° C., 2 hours
From the text: A tritiated adenosine A2A antagonist, 3-(3-hydroxypropyl)-7-methyl-8-(m-methoxystyryl)-1-propargylxanthine, (3H-MSX-2, specific activity: 80 Ci/mmol), was purchased from American Radiolabeled Chemicals, Inc (St. Louis, Mo.). A tritiated adenosine A1 antagonist, 1,3-Dipropyl-8-cyclopentylxanthine ([^3H]DPCPX, specific activity: 120 Ci/mmol) was purchased from Perkin Elmer (Boston, Mass.). A tritiated adenosine A2B antagonist, 4-(2-[7-amino-2-(2-furyl) [1,2,4]triazolo[2,3-a][1,3,5]triazin-5-ylamino]ethyl)phenol ([^3H]ZM241385 specific activity: 27.4 Ci/mmol) was purchased from American Radiolabeled Chemicals, Inc (St. Louis, Mo.). Adenosine Deaminase (ADA) was purchased from Roche Molecular Biochemicals (Nutley, N.J.). GTP was purchased from Sigma. Concentrated stock solution (10 mM) of compounds was dissolved in dimethylsulfoxide (DMSO), stored at −20° C., and diluted in Tris-EDTA buffer (50 mM Tris and 1 mM EDTA, 10 mM MgCl2, pH 7.4) for use in experiments. The final content of dimethylsulfoxide in Tris-EDTA buffer during experiments was not more than 1%. Male Sprague Dawley rats, weighted 250-400 g, 8-10 weeks old, were purchased from Charles River Labs (Wilmington, Mass.).
HEK293 (Human Embryonic Kidney 293) cells stably expressing human A2A adenosine receptor or human A2B adenosine receptor were maintained in DMEM supplemented with 10% fetal bovine serum, 2 mM L-glutamine, 100 IU/ml penicillin, 50 μg/ml streptomycin and 2 μg/ml puromycin. CHO (Chinese Hamster Ovary) cells stably expressing human A1 adenosine receptor or human A3 adenosine receptor were maintained in F12K medium supplemented with 10% fetal bovine serum, 2 mM L-glutamine, 100 IU penicillin, 50 μg/ml streptomycin and 8 μg/ml puromycin. PC12 (rat pheochromocytoma) cells were cultured in F12K medium supplemented with 10% horse serum and 2.5% fetal bovine serum, 2 mM L-glutamine, 100 IU/ml penicillin, and 50 μg/ml streptomycin. All cells were maintained at 37° C. in a humidified 5% CO2/95% air incubator and recultivated 2 times per week.
Cultured cells in 150 mm^2 dishes were washed once with PBS, detached by scrapping, collected with buffer A (10 mM HEPES, 10 mM EDTA, pH 7.4) containing protease inhibitor cocktail. Cells were then homogenized by a handheld homogenizer at a speed of 4.5 for 1 min. The homogenate was centrifuged by a Beckman ultracentrifuge at a speed of 29,000×g for 15 min. The pellets were resuspended in buffer HE (10 mM HEPES, 1 mM EDTA, pH 7.4, with protease inhibitor cocktail), centrifuged again at 29,000×g for 15 min. The crude membrane was resuspended using buffer HE, and protein concentration was measured by the method of Lowery with BSA as standard. Similar procedures were used for membrane preparation for fresh rat tissues. All experimental procedures were done at 4° C. Membranes were aliquot and kept at −80° C.
The binding assays utilized 15 ug of A2A membrane (human recombinant A2A membrane, rat striatal membrane, or PC 12 cell membrane) that had been treated with adenosine deaminase and 50 mM Tris-EDTA buffer (pH=7.4) followed by mixing 2 μL of serially diluted DMSO stock solution of the compounds of this invention at concentrations ranging from 10 μM to 0.1 nM or the control received 2 μL of DMSO alone, then the tritiated antagonist 3-(3-hydroxypropyl)-7-methyl-8-(m-methoxystyryl)-1-propargylxanthine (3H-MSX-2) in Tris-EDTA buffer (50 mM Tris, 1 mM EDTA, 10 mM MgCl2, pH of 7.4) was added to achieve a final concentration of 2 nM. After incubation at 23° C. for 2 hours, the solutions were filtered using a membrane harvester with multiple washing of the membranes (3×). The filter plates were counted in scintillation cocktail affording the amount of displacement ^3H-MSX-2 by the competitive binding compositions of this invention. Radioligand binding data was analyzed using GraphPad Prism version 4.0 (San Diego, Calif.). […]

Row | Ki | Compound
1 | 182 nM | CCn1c(=O)[nH]c2sc(/C=C/c3ccc(C)cc3)c(C)c2c1=O [XIII, 6-[(1E)-2-(4-methylphenyl)vinyl]-3-ethyl-5-methyl-1,3-dihydrothiopheno[2,3-d]pyrimidine-2,4-dione]
2 | 104 nM | CCn1c(=O)[nH]c2sc(/C=C/c3cccc(OC)c3)c(C)c2c1=O [XVI, 6-[(1E)-2-(3-methoxyphenyl)vinyl]-3-ethyl-5-methyl-1,3-dihydrothiopheno[2,3-d]pyrimidine-2,4-dione]
3 | 119 nM | CCn1c(=O)[nH]c2sc(/C=C/c3ccc(OC)cc3)c(C)c2c1=O [XIV, 6-[(1E)-2-(4-methoxyphenyl)vinyl]-3-ethyl-5-methyl-1,3-dihydrothiopheno[2,3-d]pyrimidine-2,4-dione]
4 | 38 nM | CCn1c(=O)[nH]c2sc(/C=C/c3ccccc3OC)c(C)c2c1=O [XVII, 6-[(1E)-2-(2-methoxyphenyl)vinyl]-3-ethyl-5-methyl-1,3-dihydrothiopheno[2,3-d]pyrimidine-2,4-dione]
5 | 75 nM | CCn1c(=O)[nH]c2sc(/C=C/c3ccc(OC)c(OC)c3)c(C)c2c1=O [X, 6-[(1E)-2-(3,4-dimethoxyphenyl)vinyl]-3-ethyl-5-methyl-1,3-dihydrothiopheno[2,3-d]pyrimidine-2,4-dione]
6 | 33 nM | CCn1c(=O)[nH]c2sc(/C=C/c3cccnc3)c(C)c2c1=O [XII, 6-((1E)-2-(3-pyridyl)vinyl)-3-ethyl-5-methyl-1,3-dihydrothiopheno[2,3-d]pyrimidine-2,4-dione]
7 | 277 nM | COc1ccc(/C=C/c2sc3[nH]c(=O)n(CC(C)C)c(=O)c3c2C)cc1OC [XI, 6-[(1E)-2-(3,4-dimethoxyphenyl)vinyl]-5-methyl-3-(2-methylpropyl)-1,3-dihydrothiopheno[2,3-d]pyrimidine-2,4-dione]
8 | 170 nM | CCn1c(=O)[nH]c2sc(/C=C/c3ccccc3F)c(C)c2c1=O [XV, 6-[(1E)-2-(2-fluorophenyl)vinyl]-3-ethyl-5-methyl-1,3-dihydrothiopheno[2,3-d]pyrimidine-2,4-dione]
9 | 96 nM | CCn1c(=O)[nH]c2sc(/C=C/c3cc(OC)cc(OC)c3)c(C)c2c1=O [XVIII, 6-[(1E)-2-(3,5-dimethoxyphenyl)vinyl]-3-ethyl-5-methyl-1,3-dihydrothiopheno[2,3-d]pyrimidine-2,4-dione]

The next lines start with the molecule.

Row | Compound | Ki
10 | CCn1c(=O)[nH]c2sc(/C=C/c3ccc(C(F)(F)F)cc3)c(C)c2c1=O [IX, 6-{(1E)-2-[4-(trifluoromethyl)phenyl]vinyl}-3-ethyl-5-methyl-1,3-dihydrothiopheno[2,3-d]pyrimidine-2,4-dione] | 674 nM
11 | CCn1c(=O)[nH]c2sc(/C=C/c3cccc(F)c3)c(C)c2c1=O [VI, 6-[(1E)-2-(3-fluorophenyl)vinyl]-3-ethyl-5-methyl-1,3-dihydrothiopheno[2,3-d]pyrimidine-2,4-dione] | 242 nM
12 | C#CCn1c(=O)c2c(C)c(/C=C/c3ccccc3)sc2n(C)c1=O [V, 6-((1E)-2-phenylvinyl)-1,5-dimethyl-3-prop-2-ynyl-1,3-dihydrothiopheno[2,3-d]pyrimidine-2,4-dione] | 390 nM
13 | CCn1c(=O)c2c(C)c(/C=C/c3ccc(OC)c(OC)c3)sc2n(C)c1=O [I, 6-[(1E)-2-(3,4-dimethoxyphenyl)vinyl]-3-ethyl-1,5-dimethyl-1,3-dihydrothiopheno[2,3-d]pyrimidine-2,4-dione] | 220 nM
14 | CCn1c(=O)[nH]c2sc(/C=C/c3ccc(-c4ccccc4)cc3)c(C)c2c1=O [VIII, 6-[(1E)-2-(4-phenylphenyl)vinyl]-3-ethyl-5-methyl-1,3-dihydrothiopheno[2,3-d]pyrimidine-2,4-dione] | 776 nM
15 | CCn1c(=O)[nH]c2sc(/C=C/c3ccc(F)cc3)c(C)c2c1=O [IV, 6-[(1E)-2-(4-fluorophenyl)vinyl]-3-ethyl-5-methyl-1,3-dihydrothiopheno[2,3-d]pyrimidine-2,4-dione] | 189 nM
16 | CCn1c(=O)[nH]c2sc(/C=C/c3ccccc3)c(C)c2c1=O [III, 6-((1E)-2-phenylvinyl)-3-ethyl-5-methyl-1,3-dihydrothiopheno[2,3-d]pyrimidine-2,4-dione] | 171 nM
17 | CCn1c(=O)[nH]c2sc(/C=C/c3ccc(Cl)cc3)c(C)c2c1=O [VII, 6-[(1E)-2-(4-chlorophenyl)vinyl]-3-ethyl-5-methyl-1,3-dihydrothiopheno[2,3-d]pyrimidine-2,4-dione] | 320 nM
18 | CCn1c(=O)c2c(C)c(/C=C/c3ccc(OC)c(OC)c3)sc2n(COCc2ccccc2)c1=O [II, 6-[(1E)-2-(3,4-dimethoxyphenyl)vinyl]-3-ethyl-5-methyl-1-[(phenylmethoxy)methyl]-1,3-dihydrothiopheno[2,3-d]pyrimidine-2,4-dione] | 866 nM
